Data published in the NIST ThermoML archive (doi:10.1016/j.tca.2008.11.005).
± gives the expanded uncertainty stated by the source.

Conditions: Liquid

C[SiH]1O[SiH](C)O[SiH](C)O[SiH](C)O[SiH](C)O1 (stereo not given) [2,4,6,8,10-pentamethylcyclopentasiloxane]
Conditions | vapor or sublimation pressure [kPa]
330.8 K | 1.325
348.03 K | 3.325 ± 4
357.45 K | 5.325 ± 4.1
364.75 K | 7.325 ± 4.2
370.73 K | 9.325 ± 4.2
375.49 K | 11.32 ± 4.3
378.23 K | 13.32 ± 4.4
381.78 K | 15.32 ± 4.5
385.02 K | 17.32 ± 4.5
387.96 K | 19.32 ± 4.6
390.75 K | 21.32 ± 4.7
393.18 K | 23.32 ± 4.8
395.46 K | 25.32 ± 4.9
397.89 K | 27.32 ± 4.9
399.92 K | 29.32 ± 5
401.9 K | 31.32 ± 5.1
403.77 K | 33.33 ± 5.2
405.7 K | 35.33 ± 5.2
407.22 K | 37.33 ± 5.3
408.94 K | 39.33 ± 5.4
410.46 K | 41.33 ± 5.5
411.98 K | 43.33 ± 5.6
413.4 K | 45.33 ± 5.6
414.87 K | 47.33 ± 5.7
416.19 K | 49.33 ± 5.8
417.55 K | 51.33 ± 5.9
423.53 K | 61.33 ± 6.3
429.06 K | 71.33 ± 6.6
433.77 K | 81.33 ± 7
437.93 K | 91.33 ± 7.4

CCO [ethanol]
Conditions | vapor or sublimation pressure [kPa]
303.95 K | 11.32 ± 4.3
315.75 K | 21.32 ± 4.7
323.5 K | 31.32 ± 5.1
329.35 K | 41.33 ± 5.5
334.05 K | 51.33 ± 5.9
338.05 K | 61.33 ± 6.3
341.65 K | 71.33 ± 6.7
344.75 K | 81.33 ± 7.1
347.55 K | 91.33 ± 7.5
350.15 K | 101.33 ± 7.9
